Patent US20180020676A1 (priority 2014, published 2018)

Assays:
[1] = system: bean rust (Uromyces appendiculatus); assay: Greenhouse control of bean rust versus […] OPTIMUM and chemical agents; format: in vivo; conditions: bean plants, 200 k conidia/ml, ten days after infection; biologicals 1×10^8 cfu/ml, Tebuconazole 50 g a.i./ha, Chlorothalonil 500 g a.i./ha; 0.1875% TACTIC in all
[2] = system: bean rust (Uromyces appendiculatus); assay: Greenhouse control of bean rust at varying rates of inoculation; format: in vivo; conditions: 200K conidia/ml, ten days after infection, biologicals 1×10^8 cfu/ml, Tebuconazole 50 g a.i./ha
Protocol: The formulations and treatment methods used were the same as described for the previous experiment. One day after treatment application, the test plants were infected with bean rust (Uromyces appendiculatus) at an inoculation rate ranging from 50 k to 300 k conidia/ml. Ten days after infection with bean rust (Uromyces appendiculatus) the percent of disease control was evaluated for each of: […]

Row | SMILES | Percent Disease Control [1] | Percent Disease Control [2]
1 | N#Cc1c(Cl)c(Cl)c(Cl)c(C#N)c1Cl [Chlorothalonil] | 100% | 
2 | CC(C)(C)C(O)(CCc1ccc(Cl)cc1)Cn1cncn1 (stereo not drawn) [Tebuconazole] | 100% | 100 a %
